Experimental data taken from ChEMBL document CHEMBL4765227, “Hit to lead optimization of a series of N-[4-(1,3-benzothiazol-2-yl)phenyl]acetamides as monoacylglycerol lipase inhibitors with potential anticancer activity” (Eur J Med Chem, 2016).

Assays:
Format in all cases: functional
Settings in all cases: read-out: GI
OVCAR-8 = assay: Growth inhibition of human OVCAR-8 cells at 10 uM incubated for 48 hrs by sulforhodamine B assay relative to control
SK-MEL-5 = assay: Growth inhibition of human SK-MEL-5 cells at 10 uM incubated for 48 hrs by sulforhodamine B assay relative to control
SF-539 = assay: Growth inhibition of human SF-539 cells at 10 uM incubated for 48 hrs by sulforhodamine B assay relative to control
MDA-MB-231 = assay: Growth inhibition of human MDA-MB-231 cells at 10 uM incubated for 48 hrs by sulforhodamine B assay relative to control
NCI/ADR-RES = assay: Growth inhibition of human NCI/ADR-RES cells at 10 uM incubated for 48 hrs by sulforhodamine B assay relative to control
SN12C = assay: Growth inhibition of human SN12C cells at 10 uM incubated for 48 hrs by sulforhodamine B assay relative to control
UACC-62 = assay: Growth inhibition of human UACC-62 cells at 10 uM incubated for 48 hrs by sulforhodamine B assay relative to control
NCI-H322M = assay: Growth inhibition of human NCI-H322M cells at 10 uM incubated for 48 hrs by sulforhodamine B assay relative to control
SF-295 = assay: Growth inhibition of human SF-295 cells at 10 uM incubated for 48 hrs by sulforhodamine B assay relative to control
K562 = assay: Growth inhibition of human K562 cells at 10 uM incubated for 48 hrs by sulforhodamine B assay relative to control
HOP-62 = assay: Growth inhibition of human HOP-62 cells at 10 uM incubated for 48 hrs by sulforhodamine B assay relative to control
SK-OV-3 = assay: Growth inhibition of human SK-OV-3 cells at 10 uM incubated for 48 hrs by sulforhodamine B assay relative to control
SR = assay: Growth inhibition of human SR cells at 10 uM incubated for 48 hrs by sulforhodamine B assay relative to control
UO-31 = assay: Growth inhibition of human UO-31 cells at 10 uM incubated for 48 hrs by sulforhodamine B assay relative to control
DU-145 = assay: Growth inhibition of human DU-145 cells at 10 uM incubated for 48 hrs by sulforhodamine B assay relative to control
MDA-MB-435 = assay: Growth inhibition of human MDA-MB-435 cells at 10 uM incubated for 48 hrs by sulforhodamine B assay relative to control
RXF 393 = assay: Growth inhibition of human RXF 393 cells at 10 uM incubated for 48 hrs by sulforhodamine B assay relative to control
MCF7 = assay: Growth inhibition of human MCF7 cells at 10 uM incubated for 48 hrs by sulforhodamine B assay relative to control
MDA-MB-468 = assay: Growth inhibition of human MDA-MB-468 cells at 10 uM incubated for 48 hrs by sulforhodamine B assay relative to control
HT-29 = assay: Growth inhibition of human HT-29 cells at 10 uM incubated for 48 hrs by sulforhodamine B assay relative to control
OVCAR-4 = assay: Growth inhibition of human OVCAR-4 cells at 10 uM incubated for 48 hrs by sulforhodamine B assay relative to control
BT-549 = assay: Growth inhibition of human BT-549 cells at 10 uM incubated for 48 hrs by sulforhodamine B assay relative to control
CAKI-1 = assay: Growth inhibition of human CAKI-1 cells at 10 uM incubated for 48 hrs by sulforhodamine B assay relative to control
COLO 205 = assay: Growth inhibition of human COLO 205 cells at 10 uM incubated for 48 hrs by sulforhodamine B assay relative to control
KM12 = assay: Growth inhibition of human KM12 cells at 10 uM incubated for 48 hrs by sulforhodamine B assay relative to control
PC-3 = assay: Growth inhibition of human PC-3 cells at 10 uM incubated for 48 hrs by sulforhodamine B assay relative to control
Hs-578T = assay: Growth inhibition of human Hs-578T cells at 10 uM incubated for 48 hrs by sulforhodamine B assay relative to control
U-251 = assay: Growth inhibition of human U-251 cells at 10 uM incubated for 48 hrs by sulforhodamine B assay relative to control
OVCAR-3 = assay: Growth inhibition of human OVCAR-3 cells at 10 uM incubated for 48 hrs by sulforhodamine B assay relative to control
TK-10 = assay: Growth inhibition of human TK-10 cells at 10 uM incubated for 48 hrs by sulforhodamine B assay relative to control
786-0 = assay: Growth inhibition of human 786-0 cells at 10 uM incubated for 48 hrs by sulforhodamine B assay relative to control
NCI-H226 = assay: Growth inhibition of human NCI-H226 cells at 10 uM incubated for 48 hrs by sulforhodamine B assay relative to control
M14 = assay: Growth inhibition of human M14 cells at 10 uM incubated for 48 hrs by sulforhodamine B assay relative to control
A549 = assay: Growth inhibition of human A549/ATCC cells at 10 uM incubated for 48 hrs by sulforhodamine B assay relative to control
NCI-H460 = assay: Growth inhibition of human NCI-H460 cells at 10 uM incubated for 48 hrs by sulforhodamine B assay relative to control
NCI-H23 = assay: Growth inhibition of human NCI-H23 cells at 10 uM incubated for 48 hrs by sulforhodamine B assay relative to control
MOLT-4 = assay: Growth inhibition of human MOLT-4 cells at 10 uM incubated for 48 hrs by sulforhodamine B assay relative to control
HL-60(TB) = assay: Growth inhibition of human HL-60(TB) cells at 10 uM incubated for 48 hrs by sulforhodamine B assay relative to control
IGROV-1 = assay: Growth inhibition of human IGROV-1 cells at 10 uM incubated for 48 hrs by sulforhodamine B assay relative to control
HCT-116 = assay: Growth inhibition of human HCT-116 cells at 10 uM incubated for 48 hrs by sulforhodamine B assay relative to control
NCI-H522 = assay: Growth inhibition of human NCI-H522 cells at 10 uM incubated for 48 hrs by sulforhodamine B assay relative to control
ACHN = assay: Growth inhibition of human ACHN cells at 10 uM incubated for 48 hrs by sulforhodamine B assay relative to control
CCRF-CEM = assay: Growth inhibition of human CCRF-CEM cells at 10 uM incubated for 48 hrs by sulforhodamine B assay relative to control
LOX IMVI = assay: Growth inhibition of human LOX IMVI cells at 10 uM incubated for 48 hrs by sulforhodamine B assay relative to control

## O=C(Cn1nnc2ccccc21)Nc1ccc(-c2nc3ccccc3s2)cc1
OVCAR-8
  inhibition of growth at 10 µM: 1.53%
SK-MEL-5
  inhibition of growth at 10 µM: 25.7%
SF-539
  inhibition of growth at 10 µM: 28.8%
MDA-MB-231
  inhibition of growth at 10 µM: 5.25%
NCI/ADR-RES
  inhibition of growth at 10 µM: 3.77%
SN12C
  inhibition of growth at 10 µM: -0.79%
UACC-62
  inhibition of growth at 10 µM: 2.9%
NCI-H322M
  inhibition of growth at 10 µM: -2.72%
SF-295
  inhibition of growth at 10 µM: 15.2%
K562
  inhibition of growth at 10 µM: 44.8%
HOP-62
  inhibition of growth at 10 µM: -1.24%
SK-OV-3
  inhibition of growth at 10 µM: -4.22%
SR
  inhibition of growth at 10 µM: 59.9%
UO-31
  inhibition of growth at 10 µM: 13.5%
DU-145
  inhibition of growth at 10 µM: 26%
MDA-MB-435
  inhibition of growth at 10 µM: 4.09%
RXF 393
  inhibition of growth at 10 µM: 0.05%
MCF7
  inhibition of growth at 10 µM: 71.1%
MDA-MB-468
  inhibition of growth at 10 µM: 124%
HT-29
  inhibition of growth at 10 µM: -0.75%
OVCAR-4
  inhibition of growth at 10 µM: 27.8%
BT-549
  inhibition of growth at 10 µM: 13.5%
CAKI-1
  inhibition of growth at 10 µM: 14.5%
COLO 205
  inhibition of growth at 10 µM: -5.13%
KM12
  inhibition of growth at 10 µM: 8.6%
PC-3
  inhibition of growth at 10 µM: 16.7%
Hs-578T
  inhibition of growth at 10 µM: -11.5%
U-251
  inhibition of growth at 10 µM: 10.4%
OVCAR-3
  inhibition of growth at 10 µM: 9.56%
TK-10
  inhibition of growth at 10 µM: 5.23%
786-0
  inhibition of growth at 10 µM: 5.01%
NCI-H226
  inhibition of growth at 10 µM: 32.5%
M14
  inhibition of growth at 10 µM: 9.36%
A549
  inhibition of growth at 10 µM: 6.45%
NCI-H460
  inhibition of growth at 10 µM: 17%
NCI-H23
  inhibition of growth at 10 µM: 19.3%
MOLT-4
  inhibition of growth at 10 µM: 38.4%
HL-60(TB)
  inhibition of growth at 10 µM: 9.24%
IGROV-1
  inhibition of growth at 10 µM: 2.46%
HCT-116
  inhibition of growth at 10 µM: 2.6%
NCI-H522
  inhibition of growth at 10 µM: 20.8%
ACHN
  inhibition of growth at 10 µM: -9.93%
CCRF-CEM
  inhibition of growth at 10 µM: 30.3%
LOX IMVI
  inhibition of growth at 10 µM: 15.8%

## O=C(Cn1ccc2ccccc21)Nc1ccc(-c2nc3ccccc3s2)cc1
OVCAR-8
  inhibition of growth at 10 µM: -4.73%
SK-MEL-5
  inhibition of growth at 10 µM: 1.44%
SF-539
  inhibition of growth at 10 µM: -2.36%
MDA-MB-231
  inhibition of growth at 10 µM: -7.77%
NCI/ADR-RES
  inhibition of growth at 10 µM: -0.33%
SN12C
  inhibition of growth at 10 µM: -1.09%
UACC-62
  inhibition of growth at 10 µM: 5.01%
NCI-H322M
  inhibition of growth at 10 µM: 1.19%
SF-295
  inhibition of growth at 10 µM: -3.08%
K562
  inhibition of growth at 10 µM: -3.37%
HOP-62
  inhibition of growth at 10 µM: -3.42%
SK-OV-3
  inhibition of growth at 10 µM: -1.65%
SR
  inhibition of growth at 10 µM: 4.51%
UO-31
  inhibition of growth at 10 µM: 7.58%
DU-145
  inhibition of growth at 10 µM: -0.67%
MDA-MB-435
  inhibition of growth at 10 µM: -3.52%
RXF 393
  inhibition of growth at 10 µM: -12.6%
MCF7
  inhibition of growth at 10 µM: 61.8%
MDA-MB-468
  inhibition of growth at 10 µM: 150%
HT-29
  inhibition of growth at 10 µM: -14.7%
OVCAR-4
  inhibition of growth at 10 µM: -2.92%
BT-549
  inhibition of growth at 10 µM: -5.34%
CAKI-1
  inhibition of growth at 10 µM: -0.29%
COLO 205
  inhibition of growth at 10 µM: -0.82%
KM12
  inhibition of growth at 10 µM: -6.39%
PC-3
  inhibition of growth at 10 µM: 2.02%
Hs-578T
  inhibition of growth at 10 µM: 2.29%
U-251
  inhibition of growth at 10 µM: 2.41%
OVCAR-3
  inhibition of growth at 10 µM: -2.19%
TK-10
  inhibition of growth at 10 µM: -3.65%
786-0
  inhibition of growth at 10 µM: -3.1%
NCI-H226
  inhibition of growth at 10 µM: -2.24%
M14
  inhibition of growth at 10 µM: -8.41%
A549
  inhibition of growth at 10 µM: 1.71%
NCI-H460
  inhibition of growth at 10 µM: -4.62%
NCI-H23
  inhibition of growth at 10 µM: 5.98%
MOLT-4
  inhibition of growth at 10 µM: 5.48%
HL-60(TB)
  inhibition of growth at 10 µM: 0.1%
IGROV-1
  inhibition of growth at 10 µM: 26.2%
HCT-116
  inhibition of growth at 10 µM: -1.55%
NCI-H522
  inhibition of growth at 10 µM: -1.58%
ACHN
  inhibition of growth at 10 µM: -10.9%
CCRF-CEM
  inhibition of growth at 10 µM: 2.97%
LOX IMVI
  inhibition of growth at 10 µM: 8.68%
